“Also recorded” adds a separate entry of the source.
Legend:
Type in all cases: physicochemical
[1] = Weight partition coefficient Kb of hydrogen peroxide between the water and the working solution; H2O2 in organic phase
Procedure: (§1) (*) the polar solvents tested were sextate, decanenitrile, 2,2,6-trimethylcyclohexanecarbonitrile (C10A), 2,2,5,6-tetramethylcyclohexanecarbonitrile (C11A) and 1,2,2,4-tetramethylcyclohexylcarbonitrile (C11B). […] In this Figure, Kb stands for the weight partition coefficient of hydrogen peroxide between the water and the working solution (mixture of quinones and organic solvents). It is calculated using the following formula:
Kb=(g H2O2/kg aqueous phase)/(g H2O2/kg organic phase)

[2] = Solubility tests of hydrogenated quinones (QH) in solvent mixtures (polar solvent + S-150), synthetic EQ/ETQ working solutions; conditions: for Test level values (theoretical gH2O2/kg of WS), comparison in words: Table 1; for Test level (gH2O2/kg) measured at 60° C. / Test level (gH2O2/kg) measured at 65° C. / Test level (gH2O2/kg) measured at 70° C. / Test level (gH2O2/kg) measured at 50° C. / Test level (gH2O2/kg) measured at 55° C.: 34*QH/240
Procedure: The determination of the QH solubility was performed on synthetic EQ/ETQ working solutions. These quinones mixed in the tested solvents have been hydrogenated to a fixed level and cooled down successively to 3 different temperatures before the measurement (min. 3 hours to stabilize the system between each measurement). The conditions applied for these tests were:
as §1, with “formula: […]” for “formula:”
The maximum solubility of a hydrogenated quinone (QH) in a solvent mixture is directly correlated with the productivity of the working solution. The higher is the QH solubility, the higher will be the theoretical quantity of hydrogen peroxide achievable per kg of WS (Productivity). These theoretical values, designated by the terms “Test level (gH2O2/kg of WS) measured at . . . ” in Table 1, were calculated as follows: […]
1 mole (240 g) ETQH (which actually is the QH in our Examples) per kg of WS will produce 1 mole (34 g) of H2O2 per kg of WS.

[3] = Approx density of polar solvents at ambient temperature
[4] = TOC in the H2O2 obtained (solubility of the solvent in H2O2); conditions: for Solubility of the solvent in H2O2 (as indicated by level of TOC in the H2O2 obtained): comparison in words, Table 2
[5] = Polar solvent 30% / Solvesso 150 70%
[6] = Polar solvent 40% / Solvesso 150 60%
[7] = Polar solvent 50% / Solvesso 150 50%
[8] = Polar solvent 60% / Solvesso 150 40%
[9] = Polar solvent 70% / Solvesso 150 30%
[10] = polar solvent 77% / S150 23%, listed as 4MCH-CN

Row | H2O2 in OP [1, 5] | H2O2 in OP [1, 6] | H2O2 in OP [1, 7] | H2O2 in OP [1, 8] | H2O2 in OP [1, 9] | Test level (gH2O2/kg) measured at 60° C. ([2]; polar solvent 50% / S150 50%) | Test level (gH2O2/kg) measured at 65° C. ([2]; polar solvent 50% / S150 50%) | Test level (gH2O2/kg) measured at 70° C. ([2]; polar solvent 50% / S150 50%) | Approx density of polar solvents at amb T° [3] | TOC in H2O2 [4, 5] | TOC in H2O2 [4, 6] | TOC in H2O2 [4, 7] | TOC in H2O2 [4, 8] | TOC in H2O2 [4, 9] | Solubility of the solvent in H2O2 (as indicated by level of TOC in the H2O2 obtained) [4] | Compound | Test level values (theoretical gH2O2/kg of WS), comparison in words [2] | other results
1 | 0.9821 g/kg | 1.466 g/kg | 2.135 g/kg | 3.08 g/kg | 3.871 g/kg | 10.5 gH2O2/kg | 11.4 gH2O2/kg | full soluble | ~0.89 kg/L | 928 ppm | 1042 ppm | 1248 ppm | 1456 ppm | 1684 ppm | – | CC1CCCC(C)(C)C1C#N (stereo not shown) [C10A, 2,2,6-trimethylcyclohexanecarbonitrile] | much higher (almost the double in fact) than with sextate or a linear nitrile like decanenitrile | QH (g/kg) measured at 70° C. ([2]; polar solvent 50% / S150 50%): full soluble; Test level (gH2O2/kg) measured at 60° C. ([2]; polar solvent 60% / S150 40%): 15.6 gH2O2/kg; QH (g/kg) measured at 65° C. ([2]; polar solvent 60% / S150 40%): full soluble; Test level (gH2O2/kg) measured at 65° C. ([2]; polar solvent 60% / S150 40%): full soluble; QH (g/kg) measured at 70° C. ([2]; polar solvent 60% / S150 40%): full soluble; Test level (gH2O2/kg) measured at 70° C. ([2]; polar solvent 60% / S150 40%): full soluble
2 | 0.919 g/kg | 1.271 g/kg | – | 2.332 g/kg | 2.786 g/kg | 9.8 gH2O2/kg | 10.8 gH2O2/kg | 14.8 gH2O2/kg | ~0.895 kg/L | 281 ppm | 268 ppm | 269 ppm | 274 ppm | 291 ppm | less soluble in H2O2 than solvent C10A | CC1CCC(C)(C)C(C#N)C1C (stereo not shown) [C11A, 2,2,5,6-tetramethylcyclohexanecarbonitrile] | reach the absolute maximum theoretical value | Test level (gH2O2/kg) measured at 50° C. ([2]; polar solvent 50% / S150 50%): 7.7 gH2O2/kg; Test level (gH2O2/kg) measured at 55° C. ([2]; polar solvent 50% / S150 50%): 8.6 gH2O2/kg; Test level (gH2O2/kg) measured at 50° C. ([2]; polar solvent 77% / S150 23%): 11.9 gH2O2/kg; Test level (gH2O2/kg) measured at 55° C. ([2]; polar solvent 77% / S150 23%): 12.8 gH2O2/kg; QH (g/kg) measured at 60° C. ([2]; polar solvent 77% / S150 23%): complete solubility; Test level (gH2O2/kg) measured at 60° C. ([2]; polar solvent 77% / S150 23%): 16.3 gH2O2/kg; Test level (gH2O2/kg) measured at 60° C. [2, 10]: full soluble; QH (g/kg) measured at 60° C. [2, 10]: full soluble; QH (g/kg) measured at 65° C. ([2]; polar solvent 77% / S150 23%): full soluble; Test level (gH2O2/kg) measured at 65° C. ([2]; polar solvent 77% / S150 23%): full soluble; QH (g/kg) measured at 70° C. ([2]; polar solvent 77% / S150 23%): full soluble; Test level (gH2O2/kg) measured at 70° C. ([2]; polar solvent 77% / S150 23%): full soluble
3 | – | 1.632 g/kg | 2.487 g/kg | 3.167 g/kg | 3.805 g/kg | – | – | – | – | – | 308 ppm | 328 ppm | 280 ppm | 290 ppm | less soluble in H2O2 than solvent C10A | CC1CCC(C)(C#N)C(C)(C)C1 (stereo not shown) [C11B, 1,2,2,4-tetramethylcyclohexanecarbonitrile] | – | Test level (gH2O2/kg) measured at 55° C. ([2]; polar solvent 52% / S150 48%): 9.4 gH2O2/kg; Test level (gH2O2/kg) measured at 60° C. ([2]; polar solvent 52% / S150 48%): 10.8 gH2O2/kg; Test level (gH2O2/kg) measured at 65° C. ([2]; polar solvent 52% / S150 48%): 15.1 gH2O2/kg; QH (g/kg) measured at 70° C. ([2]; polar solvent 52% / S150 48%): full soluble; Test level (gH2O2/kg) measured at 70° C. ([2]; polar solvent 52% / S150 48%): full soluble; Test level (gH2O2/kg) measured at 55° C. ([2]; polar solvent 70% / S150 30%): 15.5 gH2O2/kg; QH (g/kg) measured at 60° C. ([2]; polar solvent 70% / S150 30%): complete solubility; also recorded: full soluble; QH (g/kg) measured at 65° C. ([2]; polar solvent 70% / S150 30%): full soluble; Test level (gH2O2/kg) measured at 65° C. ([2]; polar solvent 70% / S150 30%): full soluble; QH (g/kg) measured at 70° C. ([2]; polar solvent 70% / S150 30%): full soluble; Test level (gH2O2/kg) measured at 70° C. ([2]; polar solvent 70% / S150 30%): full soluble
4 | – | – | – | – | – | – | – | – | ~0.83 kg/L | – | – | – | – | – | – | CCCCCCCCCC#N [Decanenitrile, decanenitrile, reference compound] | – | Test level (gH2O2/kg) measured at 60° C. ([2]; polar solvent 35% / S150 65%): 8.8 gH2O2/kg; Test level (gH2O2/kg) measured at 65° C. ([2]; polar solvent 35% / S150 65%): 10.1 gH2O2/kg; Test level (gH2O2/kg) measured at 70° C. ([2]; polar solvent 35% / S150 65%): 11.1 gH2O2/kg
5 | – | – | – | – | – | – | – | – | ~0.94 kg/L | – | – | – | – | – | – | methyl cyclohexyl acetate [Sextate, reference compound] | – | QH (g/kg) measured at 60° C. ([2]; polar solvent 40% / S150 60%): 52 g/kg; Test level (gH2O2/kg) measured at 60° C. ([2]; polar solvent 40% / S150 60%): 7.4 gH2O2/kg; QH (g/kg) measured at 65° C. ([2]; polar solvent 40% / S150 60%): 60.8 g/kg; Test level (gH2O2/kg) measured at 65° C. ([2]; polar solvent 40% / S150 60%): 8.6 gH2O2/kg; QH (g/kg) measured at 70° C. ([2]; polar solvent 40% / S150 60%): 68 g/kg; Test level (gH2O2/kg) measured at 70° C. ([2]; polar solvent 40% / S150 60%): 9.6 gH2O2/kg
